Results from paper PMC12508057, “Discovery of ETI41 and ETI60: novel selective endosomal Toll-like receptor inhibitors for the treatment of autoimmune diseases” (Experimental & Molecular Medicine, 2025).

Experiments:
Type in all cases: cell-based
[1] = MTT assay, cell survival in RAW 264.7; conditions: mouse, RAW 264.7 cells, RAW 264.7 cell line, read-out: LC50
Procedure: After 24 h, the supernatant was removed, and 500 μg/ml of 3-[4,5-dimethylthiazol-2-yl]-2,5 diphenyl tetrazolium bromide (MTT) solution (Invivogen) was added. After a 3 h incubation, the supernatant was removed, and DMSO was added to dissolve the formazan dye.
One-tailed paired Student’s t-tests were performed using Microsoft Excel (Microsoft). […] The therapeutic index was calculated as […]. Animal experimental results are expressed as mean ± standard deviation and analyzed using SPSS v.20 (IBM SPSS Statistics). Homogeneity of variance was assessed using Levene’s test.
Data are from at least three independent experiments (n = 3) and statistical differences between the induced case and other cases were analyzed and verified using a one-tailed Student’s t-test (*P < 0.05, **P < 0.01, ***P < 0.001).

TLR7 = biological target: T1, TLR7 (Mus musculus, UniProt P58681); test: TLR7 inhibition, TNF-α secretion (ELISA) in RAW 264.7
T1 construct: endogenous in cells; host or cells: RAW 264.7
T1 sequence (P58681 27-1050): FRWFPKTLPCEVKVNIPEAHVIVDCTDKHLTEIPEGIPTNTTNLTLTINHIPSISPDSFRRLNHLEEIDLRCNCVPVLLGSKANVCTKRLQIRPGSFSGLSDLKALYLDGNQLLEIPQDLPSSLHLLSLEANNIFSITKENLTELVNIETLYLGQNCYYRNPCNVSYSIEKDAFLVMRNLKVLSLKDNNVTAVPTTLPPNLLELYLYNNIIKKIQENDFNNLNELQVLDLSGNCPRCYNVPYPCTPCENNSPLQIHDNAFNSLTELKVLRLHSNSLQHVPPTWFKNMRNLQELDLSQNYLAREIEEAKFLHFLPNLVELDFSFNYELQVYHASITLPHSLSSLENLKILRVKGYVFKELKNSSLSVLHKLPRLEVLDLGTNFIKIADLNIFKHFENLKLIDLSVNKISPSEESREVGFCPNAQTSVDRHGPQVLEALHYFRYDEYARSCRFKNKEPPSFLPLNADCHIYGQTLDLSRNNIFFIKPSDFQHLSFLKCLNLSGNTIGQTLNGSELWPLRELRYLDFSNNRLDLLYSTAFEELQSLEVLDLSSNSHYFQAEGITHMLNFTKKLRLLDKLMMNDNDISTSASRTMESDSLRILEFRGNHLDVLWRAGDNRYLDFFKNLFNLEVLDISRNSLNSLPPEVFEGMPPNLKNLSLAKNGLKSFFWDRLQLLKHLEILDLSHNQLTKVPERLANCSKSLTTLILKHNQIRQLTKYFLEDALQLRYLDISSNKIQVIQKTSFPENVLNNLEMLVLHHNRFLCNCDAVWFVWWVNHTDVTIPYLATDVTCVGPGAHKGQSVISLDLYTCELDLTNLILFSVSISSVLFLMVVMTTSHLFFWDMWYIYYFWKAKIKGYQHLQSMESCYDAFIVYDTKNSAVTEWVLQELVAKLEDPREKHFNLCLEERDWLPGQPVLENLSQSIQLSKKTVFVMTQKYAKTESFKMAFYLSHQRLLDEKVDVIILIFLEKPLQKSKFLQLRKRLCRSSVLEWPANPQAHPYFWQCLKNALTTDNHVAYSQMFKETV
Procedure: (§1) RAW 264.7 and differentiated THP-1 cells were seeded into 96-well plates at 2 × 10^4 cells per well, while Daudi cells were seeded at 5 × 10^4 cells per well. After stabilization for 30 min, cells were stimulated with specific TLR agonists for 4 or 24 h. Supernatants were diluted and transferred to precoated ELISA plates to measure TNF-α secretion using kits from Invitrogen. Optical absorbance was measured using a BioTek Synergy HTX multimode microplate reader, and data were interpolated using BioTek Gen5 software.
(§2) One-tailed paired Student’s t-tests were performed using Microsoft Excel (Microsoft). Semi-logarithmic conversions and nonregression curve analyses for calculating 50% lethal concentration (LC50) and 50% inhibitory concentration (IC50) values were conducted using GraphPad Prism 7.0 (GraphPad). The therapeutic index was calculated as […]. Animal experimental results are expressed as mean ± standard deviation and analyzed using SPSS v.20 (IBM SPSS Statistics). Homogeneity of variance was assessed using Levene’s test.
(§3) The cells were activated with agonistic ligands: […], TLR3 (poly I:C, 2 μg/ml, 24 h), TLR4 (LPS, 10 or 100 ng/ml, 4 h), TLR5 (FLA-ST, 500 ng/ml, 4 h), TLR7 (ORN06/LyoVec, 2 μg/ml, 24 h; and IMQ, 1 μg/ml, 4 h), TLR8 (TL8-506, 2 μg/ml, 24 h) and TLR9 (ODN2395, 1 μM, 4 h) at various concentrations in RAW 264.7 cells, human Daudi cells and THP-1 cells. Data are from at least three independent experiments (n = 3) and statistical differences between the induced case and other cases were analyzed and verified using a one-tailed Student’s t-test (*P < 0.05, **P < 0.01, ***P < 0.001).

TLR9 = biological target: T2, TLR9 (Mus musculus, UniProt Q9EQU3); test: TLR9 inhibition, TNF-α secretion (ELISA) in RAW 264.7; conditions: RAW 264.7 cell line; read-out: TLR9 IC50 (mTNFα)
T2 construct: endogenous in cells; host or cells: RAW 264.7
T2 sequence (Q9EQU3 26-1032): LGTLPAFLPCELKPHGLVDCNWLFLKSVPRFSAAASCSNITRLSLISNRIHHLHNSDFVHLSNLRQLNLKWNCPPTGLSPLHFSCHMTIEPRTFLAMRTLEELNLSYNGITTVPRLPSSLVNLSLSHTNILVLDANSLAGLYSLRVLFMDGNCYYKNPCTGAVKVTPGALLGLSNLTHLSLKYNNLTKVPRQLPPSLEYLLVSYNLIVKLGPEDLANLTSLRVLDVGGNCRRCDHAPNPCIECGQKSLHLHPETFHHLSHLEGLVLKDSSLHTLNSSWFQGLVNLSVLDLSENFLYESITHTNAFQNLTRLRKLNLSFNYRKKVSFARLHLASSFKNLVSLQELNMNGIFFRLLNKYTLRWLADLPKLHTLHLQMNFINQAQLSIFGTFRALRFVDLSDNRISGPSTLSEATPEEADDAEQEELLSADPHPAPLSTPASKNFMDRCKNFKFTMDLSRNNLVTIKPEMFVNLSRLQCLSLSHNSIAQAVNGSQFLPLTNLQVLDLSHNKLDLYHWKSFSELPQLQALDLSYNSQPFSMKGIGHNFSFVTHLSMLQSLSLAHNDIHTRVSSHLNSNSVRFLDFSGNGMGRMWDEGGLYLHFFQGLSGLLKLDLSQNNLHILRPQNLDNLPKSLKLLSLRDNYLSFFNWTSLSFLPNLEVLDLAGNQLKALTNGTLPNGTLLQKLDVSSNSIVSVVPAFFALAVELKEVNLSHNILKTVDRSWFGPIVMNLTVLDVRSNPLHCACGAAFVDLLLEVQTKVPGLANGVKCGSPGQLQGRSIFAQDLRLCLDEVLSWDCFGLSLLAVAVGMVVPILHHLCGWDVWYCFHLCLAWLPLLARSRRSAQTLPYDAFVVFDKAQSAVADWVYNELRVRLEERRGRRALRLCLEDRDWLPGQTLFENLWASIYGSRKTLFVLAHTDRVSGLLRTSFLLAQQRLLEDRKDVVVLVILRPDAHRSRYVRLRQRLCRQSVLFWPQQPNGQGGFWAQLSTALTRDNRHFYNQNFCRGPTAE
Procedure: as §1, §2, §3

endosomal TLRs = test: Endosomal TLR-mediated TNF-α production, summary over cell lines; conditions: dose-dependent, without inducing cytotoxic effects
Procedure: as §1
TLR activation triggers the NF-κB pathway, resulting in increased production of pro-inflammatory cytokines, such as TNF-α and IL-6.

Cc1c(C)n(CCCN(C)C)c2nc3c(c(N)c12)CCCCC3 [ETI15, 1-(3-(dimethylamino)propyl)-2,3-dimethyl-1,5,6,7,8,9-hexahydrocyclohepta[b]pyrrolo[3,2-e]pyridin-4-amine]
CC50 at 24 h [1]: 67900 nM | IC50 (TLR7; RAW 264.7 cell line, read-out: TLR7 IC50 (mTNFα)): 2810 nM | TLR7 TI value (TLR7; therapeutic index, RAW 264.7): 24.16 | IC50 (TLR9): 360 nM | TNF-α production by RAW 264.7 and Daudi cells (endosomal TLRs): effectively inhibited
